Columns and labels:
Caco-2 = assay: Cell growth/survival, Caco-2 colon adenocarcinoma cells; format: cell-based; settings: Homo sapiens, TP53 neg.
Procedure: (§1) Melanoma cell lines used in this study were maintained in Dulbecco's modified Eagle medium (DMEM with 4500 mg/l glucose) supplemented with 10% FCS from Gibco BRL (Life Technologies, Berlin, Germany). The canine mastocytoma cell line C2 (DeVinney et al, Am. J. Respir. Cell Mol. Biol. 3:413-20, 1990) was used in this study, along with additional human cell lines: RD-ES and TC-71 (human Ewing's sarcoma), SAOS2 (human osteosarcoma), HT-1080 (human fibrosarcoma), Caco-2 (human colon adenocarcinoma), A549 (human lung adenocarcinoma), Hep-G2 and Hep-3B (human hepatocellular carcinoma), SK-N-DZ and SK-N-FI (human embryonal neuroblastoma), HTB9 (human bladder cancer), MDA-468 and MCF-7 (human breast cancer) and SW872 liposarcoma. All breast cancer cells were routinely cultured in DMEM/F-12 or in DMEM alone supplemented with 10% FCS at 37° C. in a humidified 5% CO2 atmosphere. RD-ES and TC-71 sarcoma cell lines were maintained in RPMI 1640 (Biochrom KG, Berlin, Germany) containing 10% FCS at 37° C. in a humidified 5% CO2 atmosphere. […]
(§2) Briefly, cells were maintained in standard medium, harvested, and plated at equal densities (750,000 cells in 5 cm tissue culture dishes). […] For the assessment of cell growth, the number of surviving cells was determined using an automated cell counter from Beckman Coulter GmbH (Krefeld, Germany). […]

RD-ES (Ewing's sarcoma) = assay: Cell growth/survival, RD-ES Ewing's sarcoma cells; format: cell-based; settings: Homo sapiens, TP53 mut.
Procedure: as §1, §2

Osteosarcoma-D17 = assay: Cell growth/survival, canine osteosarcoma D17 cells; format: cell-based; settings: Canis lupus familiaris
Melanoma-TLM1 = assay: Cell growth/survival, canine melanoma TLM1 cells; format: cell-based; settings: Canis lupus familiaris
Procedure: as §1, §2

human fibroblasts = assay: Survival of fibroblasts at 80% and 30% confluency; format: cell-based; settings: 2.5 μM; for Mean survival, percentage of control-treated cells: fibroblasts, n=3
Procedure: All cells were treated with 2.5 μM NVX-207. Percentage (means±S.E., n=3) of control-treated cells are given. […] Mean survival in NVX-207 treated fibroblasts at 80% confluency was 92% (S.E.=3.8) versus 3.8% mean survival (S.E.=0.4) at 30% confluency. […] HUVECs, keratinocytes and fibroblast cells were obtained from Lonza GmbH (Wuppertal, Germany) and cultivated according to the manufacturer's instructions.
Human umbilical vein endothelial cells (HUVEC), keratinocytes and fibroblast cells were obtained from Lonza GmbH (Wuppertal, Germany) and cultivated according to the manufacturer's instructions. […] The IC50 value of betulinic acid in human keratinocytes was recently determined to be ˜5.0 μg/ml (Tino Galgon al., Exp Dermatol. 14:736-43, 2005), while the IC50 of NVX-207 is ˜0.7 µg/ml. […] Mean survival in NVX-207 treated fibroblasts at 80% confluency was 92% (S.E.=3.8) versus 3.8% mean survival (S.E.=0.4) at 30% confluency. […] Under normal physiological conditions, the endothelium, as well as skin fibroblasts and skin keratinocytes, show relatively low turn-over and limited cell divisions to maintain tissue integrity.
Keratinocytes at high confluence (e.g., 80%) mimic normal physiological conditions in which these cells divide more slowly (fewer cell divisions per unit of time). In contrast, keratinocytes in psoriatic lesions divide more rapidly, as do keratinocytes cultured at lower confluency (e.g., 30%). Thus, the 30% confluency conditions were considered a model for psoriasis whereas the behavior of 80% confluent cells more closely reflects the conditions observed in normal skin.

[1] = tested on: canine lesion clinically diagnosed as basal cell carcinoma; assay: Topical treatment of canine basal cell carcinoma; format: in vivo, dog
Description: A 1% topical solution of NVX-207 in 20% ethanol, 20% Tween® 80 was applied to an exophytically growing slightly bleeding (on contact) tumor on the nose of a dog using a NVX-207 soaked cotton swab every second to third day for 7 weeks.

## C=C(C)[C@@H]1CC[C@]2(C(=O)OCC(N)(CO)CO)CC[C@]3(C)[C@H](CC[C@@H]4[C@@]5(C)CC[C@H](OC(C)=O)C(C)(C)[C@@H]5CC[C@]43C)[C@@H]12 [NVX-207, 3-O-acetylbetulinic acid-2-amino-3-hydroxy-2-hydroxymethylpropyl ester]
Caco-2
  IC50: 2.7 µM
RD-ES (Ewing's sarcoma)
  IC50: 5.3 µM
Osteosarcoma-D17
  IC50: 3.8 µM
Melanoma-TLM1
  IC50: 3.8 µM
Human fibroblasts; 30% confluency
  Mean survival, percentage of control-treated cells: 3.8%
Human fibroblasts; 80% confluency
  Mean survival, percentage of control-treated cells: 92%
Human fibroblasts; human fibroblasts
  More active against proliferating cells (30% vs 80% confluency): over 20 fold
[1]; 1% topical solution in 20% ethanol, 20% Tween 80 every second to third day, after 3 weeks
  Reduction of tumor: about 90%
[1]; topical
  Inflammation during treatment: absence of inflammation
